Data taken from patent US20090142304A1, “Composition for Improving Intestinal Flora” (priority 2005, published 2009).

Assays:
Type in all cases: in vivo
[1] = test system: lactic acid bacteria belonging to genus Lactobacillus; assay: Growth effect on lactic acid bacteria in human intestine by intake of 1-kestose (Example 1, fecal count, Mitsuoka method)
Text: (§1) Quantitative determination of intestinal lactic acid bacteria counts can be carried out by a conventional method. For example, the lactic acid bacteria counts can be quantitatively determined according to the Mitsuoka's method (Mitsuoka Tomotari, “Chounaikin no Sekai (The World of Intestinal Bacteria)”, Sobunsha Co., Ltd., Tokyo, p. 53-65) by sampling feces of a tested subject. The intestinal Bifidobacterium count can be similarly quantitatively determined.
(§2) A sample composition containing 99.4% of 1-kestose, 0.15% of acesulfame potassium, 0.32% of sucralose and 0.13% of Sweetness Enhancer ME-2208T (Trade Name) (Firmenich SA) was used (all by % by weight).
In a test, each 10 g per day of the sample composition was fed orally for 2 months to 7 male and female test subjects with mild diabetes in the age range of 20 to 70 years. Samples of the feces of the respective subjects were collected just before the start of intake (month 0), 2 months after the start of intake (month 2) and 1 month after the end of intake (month 3), and the lactic acid bacteria counts in the samples were quantitatively determined by the method of Mitsuoka (Mitsuoka Tomotari “Chounaikin no Sekai (The World of Intestinal Bacteria)” Sobunsha Co., Ltd., Tokyo, p. 53-65). Similarly, the Bifidobacterium counts in the samples were quantitatively determined.
By 5 out of the subjects 7, lactic acid bacteria belonging to genus Lactobacillus were detected at 10^6 CFU/g-feces or higher, and the changes of the lactic acid bacteria count and the Bifidobacterium count by the intake of 1-kestose with respect to the 5 subjects are shown in the Figures.

Bifidobacterium [2] = assay: Growth effect on Bifidobacterium in human feces by intake of 1-kestose (Example 1); conditions: 10 g per day orally for 2 months, 5 mild diabetes subjects
Text: as §1, §2
In a test, each 10 g per day of the sample composition was fed orally for 2 months to 7 male and female test subjects with mild diabetes in the age range of 20 to 70 years. Samples of the feces of the respective subjects were collected just before the start of intake (month 0), 2 months after the start of intake (month 2) and 1 month after the end of intake (month 3), and the lactic acid bacteria counts in the samples were quantitatively determined by the method of Mitsuoka (Mitsuoka Tomotari “Chounaikin no Sekai (The World of Intestinal Bacteria)” Sobunsha Co., Ltd., Tokyo, p. 53-65). Similarly, the Bifidobacterium counts in the samples were quantitatively determined. […]

Lactobacillus sp. = assay: Growth effect on lactic acid bacteria in human feces by intake of Meioligo P (Example 2)
Text: as §1
(§3) As a sample composition, Meioligo P (Trade Name) (Meiji Seika Kaisha), which was a composition containing 35% of 1-kestose, 55% of nystose and 10% of fructo-furanosyl nystose, was used.
(§4) In a test, each 3 g per day of the sample composition (1.05 g based on the weight of 1-kestose) was fed orally for 2 months to 7 healthy female test subjects in the age range of 19 to 41 years. Samples of the feces of the respective subjects were then collected just before the start of intake (week 0), 2 weeks after the start of intake (week 2) and 2 weeks after the end of intake (week 4), and the lactic acid bacteria count and the Bifidobacterium count in the samples were quantitatively determined similarly to Example 1.
(§5) The changes of the lactic acid bacteria count and the Bifidobacterium count in the feces by the intake of 1-kestose with respect to the 7 subjects are shown in the Figures.

Bifidobacterium [3] = assay: Growth effect on Bifidobacterium in human feces by intake of Meioligo P (Example 2); conditions: fed as Meioligo P 3 g per day (1.05 g 1-kestose)
Text: as §1, §3, §4, §5

Compound: OC[C@H]1O[C@@](CO)(OC[C@@]2(O[C@H]3O[C@H](CO)[C@@H](O)[C@H](O)[C@H]3O)O[C@H](CO)[C@@H](O)[C@@H]2O)[C@@H](O)[C@@H]1O [1-kestose]
- increase of mean Lactobacillus sp. count, after vs before the intake ([1]; 10 g per day orally for 2 months, 5 mild diabetes subjects): about 10 fold
- effect of the composition containing 1-kestose by lactic acid bacteria count in the feces ([1]; human whose lactic acid bacteria count in the feces is ≧10^6 CFU/g or higher (Example 1)): stronger
- subjects in whom the count of Lactobacillus sp. was increased by intake ([1]; sample composition 99.4% 1-kestose, 10 g per day orally for 2 months, subjects with mild diabetes with Lactobacillus at 10^6 CFU/g-feces or higher (5 of 7)): 4 out of the 5
- increase of mean Bifidobacterium count, after vs before the intake (Bifidobacterium [2]): about 7 fold
- subjects in whom the Bifidobacterium count was increased (Bifidobacterium [2]; sample composition 99.4% 1-kestose): all of 5
- increase of mean Lactobacillus sp. count, after vs before the intake (Lactobacillus sp.; fed as Meioligo P 3 g per day (1.05 g 1-kestose), 7 healthy females): about 20 fold
- increase of Lactobacillus sp. count in each of the 4 subjects with increase (Lactobacillus sp.; fed as Meioligo P 3 g per day (1.05 g 1-kestose), the 4 subjects with increase): ≥ 10 fold
- subjects in whom the count of Lactobacillus sp. was increased by intake (Lactobacillus sp.; fed as Meioligo P (35% 1-kestose, 55% nystose, 10% fructo-furanosyl nystose), 3 g per day (1.05 g 1-kestose) orally, 7 healthy female subjects): 4 out of 7
- subjects in whom the Bifidobacterium count was increased (Bifidobacterium [3]; 7 healthy female subjects): 6 out of the 7
- increase of mean Bifidobacterium count, after vs before the intake (Bifidobacterium [3]; 7 healthy females): about 2 fold
